According to US9181288B2, “Azepane derivatives and methods of treating hepatitis B infections” (Novira Therapeutics, Inc., priority 2014, dated 2015):

Experiments:
[1] = test system: HBV replication in HepG2-2.2.15 cells; assay: Inhibition of HBV replication dot-blot assay; type: cell-based; conditions: Hepatitis B virus, 144 h, six days, reduction in HBV DNA levels
Procedure: Compounds active in the HBV assembly assay are tested for their activity and toxicity in cellular assay. In the first anti-viral assay, the ability of compounds to inhibit HBV replication in an HBV-producing hepatoma cell line using the dot-blot method is evaluated.
Briefly, confluent monolayers of HepG2-2.2.15 cells are incubated with complete medium containing various concentrations of a test compound. Three days later, the culture medium is replaced with fresh medium containing the appropriately diluted test compound. Six days following the initial administration of the test compound, the cell culture supernatant is collected, and cell lysis is performed. The samples are applied onto Nylos membranes and DNA is immobilized to the membrane by UV cross-linking. After pre-hybridization, the HBV probe is added and the hybridization is performed overnight. The membranes are exposed to the Kodak films; antiviral activity is calculated from the reduction in HBV DNA levels (EC50). The EC50 for antiviral activity is calculated from the dose response curves of active compounds. Assay performance over time is monitored by the use of the standard positive control compounds ETV, BAY 41-4109, and HAP-1.
Selected compounds were tested for their activity and toxicity in cellular assay. In the first anti-viral assay, the ability of compounds to inhibit HBV replication in an HBV-producing hepatoma cell line using the dot-blot method was evaluated.
Confluent monolayers of HepG2-2.2.15 cells were incubated with complete medium containing various concentrations of a test compound. Three days later, the culture medium was replaced with fresh medium containing the appropriately diluted test compound. Six days following the initial administration of the test compound, the cell culture supernatant was collected, and cell lysis was performed. The samples were applied onto Nylos membranes and DNA was immobilized to the membrane by UV cross-linking. After pre-hybridization, the HBV probe was added and the hybridization was performed overnight. The membranes were exposed to the Kodak films; antiviral activity was calculated from the reduction in HBV DNA levels (EC50). The EC50 for antiviral activity was calculated from the dose response curves of active compounds. Assay performance over time was monitored by the use of the standard positive control compounds ETV, BAY 41-4109, and HAP-1.

[2] = target: HBV C150Bo capsid protein (mutant C150 HBV core protein labeled with BODIPY-FL) (Hepatitis B virus genotype D subtype adw, UniProt P03147, C107A/C48A/C61A/R150C); assay: HBV assembly assay (fluorescence quenching in vitro capsid assembly); type: biochemical; conditions: at about 10 μM; 50 mM Hepes pH 7.5, 150 mM NaCl, 1 hour room temperature
Chain of HBV C150Bo capsid protein (mutant C150 HBV core protein labeled with BODIPY-FL) (P03147 1-150 C48A/C61A/C107A/R150C): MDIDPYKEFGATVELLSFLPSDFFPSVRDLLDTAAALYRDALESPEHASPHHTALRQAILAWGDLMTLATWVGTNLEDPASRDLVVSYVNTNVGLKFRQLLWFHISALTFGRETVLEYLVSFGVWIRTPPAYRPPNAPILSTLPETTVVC

O=C(Nc1ccc(F)c(Cl)c1)c1ccc(CF)c(S(=O)(=O)N2CCOCC(O)C2)c1 (stereo not shown) [Compound 1983]
inhibition at 10 µM [1]: > 50% | Activity (HBV assembly assay) [2]: + (‘+’ indicates >50% activity at about 10 μM)

O=C(Nc1cc(F)c(F)c(F)c1)c1ccc(CCF)c(S(=O)(=O)N2CCCC(O)CC2)c1 (stereo not shown) [Compound 2206]
inhibition at 10 µM [1]: > 50% | Activity (HBV assembly assay) [2]: + (‘+’ indicates >50% activity at about 10 μM)

O=C(Nc1ccc(F)c(Cl)c1)c1ccc(F)c(S(=O)(=O)N2CCC[C@@H](O)CC2)c1 [Compound 1766_E1]
inhibition at 10 µM [1]: > 50% | Activity (HBV assembly assay) [2]: + (‘+’ indicates >50% activity at about 10 μM)

O=C(Nc1ccc(F)c(Cl)c1)c1ccc(CF)c(S(=O)(=O)N2CCCCCC2)c1 [Compound 2004]
inhibition at 10 µM [1]: > 50% | Activity (HBV assembly assay) [2]: + (‘+’ indicates >50% activity at about 10 μM)

CC1(O)CCCN(S(=O)(=O)c2cc(C(=O)Nc3ccc(F)c(F)c3)ccc2F)CC1 (stereo not shown) [Compound 1938]
inhibition at 10 µM [1]: > 50% | Activity (HBV assembly assay) [2]: + (‘+’ indicates >50% activity at about 10 μM)

O=C(Nc1cc(F)c(F)c(F)c1)c1cccc(S(=O)(=O)N2CCOCC(O)C2)c1 (stereo not shown) [Compound 1975]
inhibition at 10 µM [1]: > 50% | Activity (HBV assembly assay) [2]: + (‘+’ indicates >50% activity at about 10 μM)

O=C(Nc1cc(F)c(F)c(F)c1)c1ccc(CF)c(S(=O)(=O)N2CCOCC(O)(C3CC3)C2)c1 (stereo not shown) [Compound 2505]
inhibition at 10 µM [1]: > 50% | Activity (HBV assembly assay) [2]: + (‘+’ indicates >50% activity at about 10 μM)

O=C(Nc1cc(F)c(F)c(F)c1)c1ccc(F)c(S(=O)(=O)N2CC(O)CCC(F)C2)c1 (stereo not shown) [Compound 1826_D2]
inhibition at 10 µM [1]: > 50% | Activity (HBV assembly assay) [2]: + (‘+’ indicates >50% activity at about 10 μM)

O=C(Nc1ccc(F)c(Cl)c1)c1ccc(CO)c(S(=O)(=O)N2CCCC(F)CC2)c1 (stereo not shown) [Compound 1769]
inhibition at 10 µM [1]: > 50% | Activity (HBV assembly assay) [2]: + (‘+’ indicates >50% activity at about 10 μM)

O=C(Nc1cc(F)c(F)c(F)c1)c1ccc(F)c(S(=O)(=O)N2CCC(O)C(F)(F)CC2)c1 (stereo not shown) [Compound 2202]
inhibition at 10 µM [1]: > 50% | Activity (HBV assembly assay) [2]: + (‘+’ indicates >50% activity at about 10 μM)

O=C(Nc1ccc(F)c(Cl)c1)c1ccc(CF)c(S(=O)(=O)N2CCCC(O)CC2)c1 (stereo not shown) [Compound 1819]
inhibition at 10 µM [1]: > 50% | Activity (HBV assembly assay) [2]: + (‘+’ indicates >50% activity at about 10 μM)

O=C(Nc1cc(F)c(F)c(F)c1)c1ccc(F)c(S(=O)(=O)N2CCOCC(O)C2)c1 (stereo not shown) [Compound 1895]
inhibition at 10 µM [1]: > 50% | Activity (HBV assembly assay) [2]: + (‘+’ indicates >50% activity at about 10 μM)

O=C(Nc1ccc(F)c(Cl)c1)c1cc(S(=O)(=O)N2CCCC(O)CC2)c2[nH]cnc2c1 (stereo not shown) [Compound 2033]
inhibition at 10 µM [1]: > 50% | Activity (HBV assembly assay) [2]: + (‘+’ indicates >50% activity at about 10 μM)

O=C(Nc1ccc(F)c(F)c1)c1ccc(F)c(S(=O)(=O)N2CCCC(F)C(O)C2)c1 (stereo not shown) [Compound 1821]
inhibition at 10 µM [1]: > 50% | Activity (HBV assembly assay) [2]: + (‘+’ indicates >50% activity at about 10 μM)

CC(=O)OC1CCCCN(S(=O)(=O)c2cc(C(=O)Nc3cc(F)c(F)c(F)c3)ccc2F)C1 (stereo not shown) [Compound 2024]
inhibition at 10 µM [1]: > 50% | Activity (HBV assembly assay) [2]: + (‘+’ indicates >50% activity at about 10 μM)

O=C(Nc1ccc(F)c(Cl)c1)c1ccc(F)c(S(=O)(=O)N2CCCC[C@H](O)C2)c1 [Compound 1763_E2]
inhibition at 10 µM [1]: > 50% | Activity (HBV assembly assay) [2]: + (‘+’ indicates >50% activity at about 10 μM)

CC1(O)CCCCN(S(=O)(=O)c2cc(C(=O)Nc3ccc(F)c(F)c3)ccc2F)C1 (stereo not shown) [Compound 1891]
inhibition at 10 µM [1]: > 50% | Activity (HBV assembly assay) [2]: + (‘+’ indicates >50% activity at about 10 μM)
